According to ChEMBL document CHEMBL3813687, “A combined ligand- and structure-based approach for the identification of rilmenidine-derived compounds which synergize the antitumor effects of doxorubicin” (Bioorg Med Chem, 2016):
Activity calls are given as the source filed them. The calls are words filed in the database; no cut-off is given here.

Columns and labels:
K562 [1] = test: Antiproliferative activity against human K562 cells assessed as inhibition of cell survival after 48 hrs by MTT assay; format: functional, cell-based; conditions: K562, 48 h
[2] = biological target: T1, Alpha-2A adrenergic receptor (Homo sapiens, UniProt P08913); test: Displacement of [3H]RS-79948-197 from recombinant human alpha2A adrenoreceptor expressed in CHOK1 cell membrane by scintillation counting method; format: cell membranes, CHO-K1; conditions: read-out: Ki(app)
T1 sequence (P08913 whole entry): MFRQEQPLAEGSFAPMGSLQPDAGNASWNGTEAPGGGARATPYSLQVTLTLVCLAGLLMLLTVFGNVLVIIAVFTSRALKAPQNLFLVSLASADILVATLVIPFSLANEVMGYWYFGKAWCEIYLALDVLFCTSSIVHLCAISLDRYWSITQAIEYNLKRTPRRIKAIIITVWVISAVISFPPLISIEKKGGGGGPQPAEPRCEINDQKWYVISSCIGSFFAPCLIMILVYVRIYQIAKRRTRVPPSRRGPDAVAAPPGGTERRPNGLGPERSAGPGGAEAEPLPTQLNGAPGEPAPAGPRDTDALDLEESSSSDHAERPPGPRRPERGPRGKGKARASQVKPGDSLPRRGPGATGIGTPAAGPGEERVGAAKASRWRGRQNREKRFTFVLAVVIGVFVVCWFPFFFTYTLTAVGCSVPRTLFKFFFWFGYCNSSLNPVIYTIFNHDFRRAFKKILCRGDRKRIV

[3] = biological target: T1, Alpha-2A adrenergic receptor; test: Intrinsic activity at recombinant human alpha2A adrenoreceptor expressed in CHOK1 cell membrane incubated for 30 mins by [35S]GTPgammaS binding assay relative to adrenaline; format: cell membranes; conditions: CHO-K1, human, 0.5 h; read-out: Intrinsic activity
[4] = Displacement of [3H]-clonidine from Imidazoline-1 receptor in bovine adrenal medullary plasma membrane incubated for 40 mins in presence of RX821002; set-up: species or system Bos taurus
Nischarin [5] = biological target: T2, Nischarin (Rattus norvegicus, UniProt Q4G017); test: Displacement of [125I]PIC from Imidazoline-1 receptor in rat PC12 cell membrane incubated for 30 mins by gamma counting method; format: cell membranes, PC-12
T2 sequence (Q4G017 whole entry): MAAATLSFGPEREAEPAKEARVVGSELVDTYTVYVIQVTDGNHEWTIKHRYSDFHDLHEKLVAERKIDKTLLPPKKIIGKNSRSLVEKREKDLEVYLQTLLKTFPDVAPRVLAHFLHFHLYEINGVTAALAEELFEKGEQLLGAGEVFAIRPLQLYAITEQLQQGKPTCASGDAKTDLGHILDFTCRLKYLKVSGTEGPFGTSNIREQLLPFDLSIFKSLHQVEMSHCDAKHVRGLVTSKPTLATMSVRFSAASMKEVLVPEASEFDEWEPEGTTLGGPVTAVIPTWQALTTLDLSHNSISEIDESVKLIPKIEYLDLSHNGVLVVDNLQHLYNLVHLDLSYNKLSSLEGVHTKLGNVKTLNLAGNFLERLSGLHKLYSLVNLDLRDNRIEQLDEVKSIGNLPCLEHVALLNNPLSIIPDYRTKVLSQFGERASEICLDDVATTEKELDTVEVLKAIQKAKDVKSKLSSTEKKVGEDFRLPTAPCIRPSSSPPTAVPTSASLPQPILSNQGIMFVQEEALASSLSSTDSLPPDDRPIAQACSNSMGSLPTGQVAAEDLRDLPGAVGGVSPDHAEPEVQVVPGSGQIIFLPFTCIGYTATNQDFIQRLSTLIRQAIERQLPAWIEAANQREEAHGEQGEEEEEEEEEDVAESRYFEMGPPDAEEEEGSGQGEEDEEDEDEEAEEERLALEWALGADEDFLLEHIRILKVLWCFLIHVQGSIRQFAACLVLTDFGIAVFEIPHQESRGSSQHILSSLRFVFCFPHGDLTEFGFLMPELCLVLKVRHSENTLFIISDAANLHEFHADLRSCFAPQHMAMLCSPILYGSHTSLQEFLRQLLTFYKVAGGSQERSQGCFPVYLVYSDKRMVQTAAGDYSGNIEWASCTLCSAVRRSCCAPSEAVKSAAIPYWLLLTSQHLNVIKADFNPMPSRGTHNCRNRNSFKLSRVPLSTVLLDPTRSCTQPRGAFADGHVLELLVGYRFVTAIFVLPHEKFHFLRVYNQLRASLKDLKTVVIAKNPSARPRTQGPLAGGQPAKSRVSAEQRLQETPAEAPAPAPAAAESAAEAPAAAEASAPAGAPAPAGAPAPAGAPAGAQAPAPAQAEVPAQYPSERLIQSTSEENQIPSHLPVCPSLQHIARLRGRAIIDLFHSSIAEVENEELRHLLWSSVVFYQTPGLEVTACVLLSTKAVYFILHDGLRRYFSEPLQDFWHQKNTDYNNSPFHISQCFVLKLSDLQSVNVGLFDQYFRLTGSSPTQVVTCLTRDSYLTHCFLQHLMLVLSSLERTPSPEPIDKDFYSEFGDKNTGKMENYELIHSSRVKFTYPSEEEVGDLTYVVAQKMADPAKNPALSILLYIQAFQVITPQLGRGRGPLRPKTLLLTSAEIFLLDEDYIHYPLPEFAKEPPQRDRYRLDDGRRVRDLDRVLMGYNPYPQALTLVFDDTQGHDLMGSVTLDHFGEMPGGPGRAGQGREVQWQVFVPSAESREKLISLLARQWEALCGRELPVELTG

Nischarin [6] = biological target: T2, Nischarin; test: Displacement of [125I]PIC from Imidazoline-1 receptor in rat PC12 cell membrane by gamma counting method; format: cell membranes, PC-12
K562 [7] = test: Induction of apoptosis in human K562 cells assessed as early apoptotic cells at 300 uM after 24 hrs by Annexin V-FITC/propidium iodide staining based flow cytometry (reference value: 5%); format: functional
K562 [8] = test: Induction of apoptosis in human K562 cells assessed as early apoptotic cells at 300 uM after 48 hrs by Annexin V-FITC/propidium iodide staining based flow cytometry (reference value: 5%); format: functional
[9] = Displacement of [3H]-clonidine from Imidazoline-1 receptor in bovine chromaffin cell membranes incubated for 40 mins in presence of RX821002; set-up: species or system Bos taurus
K562 [10] = test: Induction of apoptosis in human K562 cells assessed as early apoptotic cells at 1 uM after 48 hrs by Annexin V-FITC/propidium iodide staining based flow cytometry (reference value: 5%); format: functional
K562 [11] = test: Induction of apoptosis in human K562 cells assessed as late apoptotic cells at 1 uM after 48 hrs by Annexin V-FITC/propidium iodide staining based flow cytometry (reference value: 1%); format: functional
K562 [12] = test: Induction of apoptosis in human K562 cells assessed as necrotic cells at 1 uM after 48 hrs by Annexin V-FITC/propidium iodide staining based flow cytometry (reference value: 1%); format: functional
K562 [13] = test: Induction of apoptosis in human K562 cells assessed as early apoptotic cells at 1 uM after 48 hrs by Annexin V-FITC/propidium iodide staining based flow cytometry relative to control; format: functional
K562 [14] = test: Cell cycle arrest in human K562 cells assessed as increase in G2/M cell population after 48 hrs by propidium iodide staining based flow cytometry; format: functional
K562 [15] = test: Induction of apoptosis in human K562 cells assessed as early apoptotic cells at 50 uM after 48 hrs by Annexin V-FITC/propidium iodide staining based flow cytometry (reference value: 5%); format: functional
K562 [16] = test: Potentiation of doxorubicin-induced apoptosis in human K562 cells assessed as early apoptotic cells at 50 uM after 48 hrs by Annexin V-FITC/propidium iodide staining based flow cytometry relative to control; format: functional
[17] = biological target: T1, Alpha-2A adrenergic receptor
Description: Agonist activity at recombinant human alpha2A adrenoreceptor expressed in CHOK1 cell membrane incubated for 30 mins by [35S]GTPgammaS binding assay

## CCCCCn1c(C)cc(NCc2ccc(Cl)cc2)cc1=O
K562 [1]
  IC50: > 300000 nM
[2]
  Ki: 80000 nM
[3]
  Emax: 0%

## Cc1ccc(F)c(C2=NCCN2)c1
[4]
  pKi: 8.28

## Clc1cc(I)cc(Cl)c1N=C1NCCN1 [PI-CLONIDINE]
Nischarin [5]
  Ki: 0.794 nM

## C(=C\c1ccccc1)/C1=NCCN1 [TRACIZOLINE]
Nischarin [6]
  Ki: 19.1 nM

## CC1CCC(=Nc2ccc(I)cc2Cl)N1 (stereo unspecified)
Nischarin [5]
  Ki: 0.178 nM

## CCCCCn1c(C)cc(NCc2ccccc2)cc1=O
K562 [1]
  IC50: > 300000 nM
[2]
  Ki: 41000 nM
[3]
  Emax: -12%

## Clc1cccc(Cl)c1N=C1NCCN1 [CLONIDINE]
Nischarin [5]
  Ki: 126 nM

## c1ccc([C@H]2C[C@@H]2C2=NCCN2)cc1
Nischarin [6]
  Ki: 347 nM

## COc1nc(C)nc(Cl)c1NC1=NCCN1 [MOXONIDINE]
K562 [7]
  Activity: 2.31%
K562 [8]
  Activity: 2.68%

## CCC1CCC(NC(C2CC2)C2CC2)=N1 (stereo unspecified)
[9]
  pKi: 6.77

## COc1cccc2c1C(=O)c1c(O)c3c(c(O)c1C2=O)C[C@@](O)(C(=O)CO)C[C@@H]3O[C@H]1C[C@H](N)[C@H](O)[C@H](C)O1 [DOXORUBICIN]
K562 [1]
  IC50: 1000 nM
K562 [10]
  Activity: 20%
K562 [11]
  Activity: 0%
K562 [12]
  Activity: 0%
K562 [13]
  Activity: 10%
K562 [14]
  Activity: Active

## CC(CC1=NCCN1)c1ccccc1 (stereo unspecified)
Nischarin [6]
  Ki: 7240 nM

## CC1CCC(NC(C2CC2)C2CC2)=N1 (stereo unspecified)
[9]
  pKi: 5.8

## C1COC(NC(C2CC2)C2CC2)=N1 [RILMENIDINE]
K562 [15]
  Activity: 20%
K562 [1]
  IC50: 65000 nM
[2]
  Ki: 300 nM
[3]
  Emax: 54%
K562 [16]
  Activity: 44%
Nischarin [5]
  Ki: 12.6 nM
[17]
  EC50: 178 nM

## Cc1cc(NCc2ccc(Cl)cc2)cc(=O)n1CCC(C)C
K562 [1]
  IC50: 224000 nM
[2]
  Ki: 99000 nM
[3]
  Emax: -1%

## Clc1cccc2c1CN(NC1=NCCN1)C2
Nischarin [5]
  Ki: 28.2 nM

## CCC(NC1=NCCC1)C1CC1 (stereo unspecified)
[9]
  pKi: 6.29

## Cc1cccc([C@H](C)c2c[nH]cn2)c1C [DEXMEDETOMIDINE]
[3]
  Emax: 63%
